Reference: patent US11130741B2 (Bioimics AB, priority 2016, dated 2021)
≈ marks a conversion by molar mass, not a printed value.

Columns and labels:
[1] = system: Staphylococcus aureus (ATCC25923); assay: MIC, broth microdilution (CLSI), Staphylococcus aureus ATCC25923; conditions: ATCC25923, read-out: S. aureus ("Clinical") MIC
[2] = system: Escherichia coli (ATCC25922); assay: MIC, broth microdilution (CLSI), Escherichia coli ATCC25922; conditions: ATCC25922, read-out: E. coli MIC, Table 15, NI = No inhibition
[3] = system: E. coli RNase P RNA, M1 RNA; assay: Inhibition of bacterial RNase P activity, IC50 determination (cleavage of pATSerUG by M1 RNA); format: biochemical; conditions: NI = No inhibition
[4] = system: Staphylococcus aureus subsp. aureus (ATCC29213); assay: MIC, broth microdilution (CLSI), Staphylococcus aureus subsp. aureus ATCC29213; format: cell-based; conditions: ATCC29213, Table 15, read-out: S. aureus ("wound") (MIC)

Row | Compound | MIC [1] [µg/mL] | MIC [2] [µg/mL] | IC50 [3] [µM] | MIC [4] [µg/mL]
1 | NC1CCCCC1C(=O)Nc1cc(C(F)(F)F)cc2c1Nc1ccccc1S2 (centres unmarked) [compound 113, 2-amino-N-(3-(trifluoromethyl)-10H-phenothiazin-1-yl)cyclohexane-carboxamide] | 7 (≈ 17.2 µM) | > 100 | – | –
2 | CN(C)CCCN1c2ccccc2Sc2cc(-c3cc4cc(C#N)ccc4[nH]3)ccc21.O=C(O)C(F)(F)F [compound 151, 2-(10-(3-(dimethylamino)propyl)-10H-phenothiazin-3-yl)-1H-indole-5-carbonitrile 2,2,2-trifluoroacetate salt] | 3 | > 100 | – | –
3 | Cl.NCCN1CCC(Nc2cc(C(F)(F)F)cc3c2Nc2ccc(N4CC5(CCC5)C4)cc2S3)CC1 [compound 325, N-(1-(2-aminoethyl)piperidin-4-yl)-7-(2-azaspiro [3.3]heptan-2-yl)-3-(trifluoromethyl)-10H-phenothiazin-1-amine hydrochloride] | – | 8 | 6.4 | 2
4 | Cl.Cl.NCCN(CCN)CCN1CCC(Nc2cc(C(F)(F)F)cc3c2Nc2ccc(Br)cc2S3)CC1 [compound 331, N1-(2-aminoethyl)-N1-(2-(4-((7-bromo-3-(trifluoromethyl)-10H-phenothiazin-1-yl)amino)piperidin-1-yl)ethyl)ethane-1,2-diamine hydrochloride] | – | 8 | 5.1 | 4
5 | CC1(C)CCN(c2ccc3c(c2)Sc2cc(C(F)(F)F)cc(NC4CCN(CCN)CC4)c2N3)C1.Cl [compound 332, N-(1-(2-aminoethyl)piperidin-4-yl)-7-(3,3-dimethyl-pyrrolidin-1-yl)-3-(trifluoromethyl)-10H-phenothiazin-1-amine hydrochloride] | – | 8 | 4.1 | 1
6 | CC1CCN(c2ccc3c(c2)Sc2cc(C(F)(F)F)cc(NC4CCN(CCN)CC4)c2N3)C1C.Cl (centres unmarked) [compound 336, N-(1-(2-aminoethyl)piperidin-4-yl)-7-(2,3-dimethyl-pyrrolidin-1-yl)-3-(trifluoromethyl)-10H-phenothiazin-1-amine hydrochloride] | – | 4 | 19 | 1
7 | CC1CC(C)N1c1ccc2c(c1)Sc1cc(C(F)(F)F)cc(NC3CCN(CCN)CC3)c1N2.Cl (centres unmarked) [compound 337, N-(1-(2-aminoethyl)piperidin-4-yl)-7-(2,4-dimethyl-azetidin-1-yl)-3-(trifluoromethyl)-10H-phenothiazin-1-amine hydrochloride] | – | 4 | 26 | 2

The next lines start with results.

Row | MIC [1] [µg/mL] | Compound | MIC [2] [µg/mL] | IC50 [3] [µM] | MIC [4] [µg/mL]
8 | 52 (≈ 127 µM) | NC1CC(C(=O)Nc2cc(C(F)(F)F)cc3c2Nc2ccccc2S3)CCN1 (centres unmarked) [compound 139, 2-amino-N-(3-(trifluoromethyl)-10H-phenothiazin-1-yl)piperidine-4-carboxamide] | > 100 | – | –
9 | 6 (≈ 15.2 µM) | OCC1CCC(Nc2cc(C(F)(F)F)cc3c2Nc2ccccc2S3)CC1 (centres unmarked) [compound 192, (4-((3-(trifluoromethyl)-10H-phenothiazin-1-yl)amino)cyclohexyl) methanol] | – | – | –
10 | 3 (≈ 7.25 µM) | Cc1c(-c2ccc3c(c2)Sc2ccccc2N3CCCN(C)C)[nH]c2ccccc12 [compound 198, N,N-dimethyl-3-(3-(3-methyl-1H-indol-2-yl)-10H-phenothiazin-10-yl)propan-1-amine] | – | – | –
11 | 4 (≈ 9 µM) | CN(C)CCCN1c2ccc(-c3cc4ccccc4[nH]3)cc2Sc2cc([N+](=O)[O-])ccc21 [compound 241, 3-(3-(1H-indol-2-yl)-7-nitro-10H-phenothiazin-10-yl)-N,N-dimethylpropan-1-amine] | – | – | –
12 | 2 (≈ 4.27 µM) | NC(Cc1c[nH]c2ccccc12)C(=O)Nc1cc(C(F)(F)F)cc2c1Nc1ccccc1S2 (centres unmarked) [compound 253, 2-amino-3-(1H-indol-3-yl)-N-(3-(trifluoromethyl)-10H-phenothiazin-1-yl)propanamide] | – | – | –
13 | 2 (≈ 4.66 µM) | COc1ccc2c(c1)Sc1cc(-c3cc4ccccc4[nH]3)ccc1N2CCCN(C)C [compound 254, 3-(3-(1H-indol-2-yl)-7-methoxy-10H-phenothiazin-10-yl)-N,N-dimethylpropan-1-amine] | – | – | –
